Source: patent publication US10219516B2, “Molecules having pesticidal utility, and intermediates, compositions, and processes, related thereto” (priority 2015, dated 2019)
Like-named read-outs stand apart in the source and are kept apart here.

How the values were obtained:
Assay type in all cases: in vivo
[1] = tested on: Beet Armyworm (Spodoptera exigua, LAPHEG); test: Bioassay on Beet Armyworm (BAW), 128-well diet tray assay
Summary of the method: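 Second instar larvae were exposed to diet treated at 50 μg/cm^2 for five to seven days at 25° C.; mortality was averaged over eight wells.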

[2] = tested on: Cabbage Looper (Trichoplusia ni, TRIPNI); test: Bioassay on Cabbage Looper (CL), 128-well diet tray assay; settings: Trichoplusia ni
Summary of the method: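 Diet-incorporation-free surface assay: 50 μg/cm^2 compound in acetone-water (90:10), dried on diet; 1–5 2nd-instar larvae/well; 8 wells; vented cover; 25° C., 14:10 L:D, 5–7 d; % mortality averaged over wells.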

[3] = tested on: Yellow Fever Mosquito (Aedes aegypti, AEDSAE); test: Bioassay on Yellow Fever Mosquito (YFM), 96-well plate larval assay; settings: for YFM rating: Yellow Fever Mosquito, 96-well plate larval assay; for YFM (Biological Results, rating): Species YFM (Yellow Fever Mosquito)
Summary of the method: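 Compound stocks at 4000 ppm in DMSO were diluted with 90:10 water/acetone, and 15 μL aliquots were dispensed into six replicate plates. About 1-day-old larvae in liver-powder water were added per well. Plates were covered and held at room temperature for 3 days before each well was scored for mortality.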

[4] = Beet Armyworm, 128-well diet tray assay, read-out: BAW rating
[5] = Cabbage Looper, 128-well diet tray assay, read-out: CL rating
[6] = Species BAW (Beet Armyworm), read-out: BAW (Biological Results, rating)
[7] = Species CL (Cabbage Looper), read-out: CL (Biological Results, rating)

SMILES | pest or weed control at 50 µg/cm2 [1, 4] [%] | pest or weed control at 50 µg/cm2 [2, 5] [%] | YFM rating [3] | pest or weed control at 50 µg/cm2 [1, 6] [%] | pest or weed control at 50 µg/cm2 [2, 7] [%] | YFM (Biological Results, rating) [3]
C=C(F)c1cc(Cl)cc([C@H]2[C@H](C(=O)Nc3ccc(Cl)c(C(=O)Nc4ccc(F)cc4F)c3)C2(Cl)Cl)c1 (relative stereo) [F386, 2-Chloro-5-(trans-2,2-dichloro-3-(3-chloro-5-(1-fluorovinyl)phenyl)cyclopropane-1-carboxamido)-N-(2,4-difluorophenyl)benzamide] | 50 to 100 | 50 to 100 | A (80-100) |  |  | 
CCn1ccc2cc(NC(=O)c3cc(NC(=O)[C@H]4[C@H](c5cc(Cl)cc(Cl)c5)C4(Cl)Cl)ccc3Cl)ccc21 (relative stereo) [F488, 2-Chloro-5-(trans)-(2,2-dichloro-3-(3,5-dichlorophenyl)cyclopropane-1-carboxamido)-N-(1-ethyl-1H-indol-5-yl)benzamide] | 50 to 100 | 50 to 100 | A (80-100) |  |  | 
C=Cc1ccc([C@H]2[C@H](C(=O)Nc3ccc(Cl)c(C(=O)N(C)c4ccc(F)cc4)c3)C2(Cl)Cl)cc1Cl (relative stereo) [F329, 2-Chloro-5-(trans-2,2-dichloro-3-(3-chloro-4-vinylphenyl)cyclopropane-1-carboxamido)-N-(4-fluorophenyl)-N-methylbenzamide] |  |  |  | 50 to 100 | 50 to 100 | A (80-100)
O=C(Nc1ncc(F)c(NCc2ccccc2)c1F)c1cc(NC(=O)[C@H]2[C@H](c3cc(Cl)cc(Cl)c3)C2(Cl)Cl)ccc1Cl [F524, N-(4-(Benzylamino)-3,5-difluoropyridin-2-yl)-2-chloro-5-((1R,3R)-2,2-dichloro-3-(3,5-dichlorophenyl)cyclopropane-1-carboxamido)benzamide] | 50 to 100 | 50 to 100 | A (80-100) |  |  | 
O=C(Nc1cncnc1)c1cc(NC(=O)[C@H]2[C@H](c3cc(Cl)cc(Cl)c3)C2(Cl)Cl)ccc1Cl (relative stereo) [F295, trans-2-Chloro-5-(2,2-dichloro-3-(3,5-dichlorophenyl)cyclopropane-1-carboxamido)-N-(pyrimidin-5-yl)benzamide] |  |  |  | 50 to 100 | 50 to 100 | A (80-100)
Cc1cc(NC(=O)c2cc(NC(=O)[C@H]3[C@H](c4cc(Cl)cc(Cl)c4)C3(Cl)Cl)ccc2Cl)ccc1F (relative stereo) [PF44, trans-2-Chloro-5-(2,2-dichloro-3-(3,5-dichlorophenyl)cyclopropane-1-carboxamido)-N-(4-fluoro-3-methylphenyl)benzamide] | 50 to 100 | 50 to 100 | A (80-100) |  |  | 
CNc1ccc(NC(=O)c2cc(NC(=O)[C@H]3[C@H](c4cc(Cl)cc(Cl)c4)C3(Cl)Cl)cc(Cl)c2Cl)cc1 (relative stereo) [F249, trans-2,3-Dichloro-5-(2,2-dichloro-3-(3,5-dichlorophenyl)cyclopropane-1-carboxamido)-N-(4-(methylamino)phenyl)benzamide] |  |  |  | 50 to 100 | 50 to 100 | A (80-100)
CN(C(=O)c1cc(NC(=O)[C@H]2[C@H](c3ccc(C(F)(F)F)cc3)C2(Cl)Cl)ccc1Cl)c1ccc(F)cc1 (relative stereo) [F82, trans-2-Chloro-5-(2,2-dichloro-3-(4-(trifluoromethyl)phenyl)cyclopropane-1-carboxamido)-N-(4-fluorophenyl)-N-methylbenzamide] |  |  |  | 50 to 100 | 50 to 100 | B (More than 0-Less than 80)
CS(=O)(=NC#N)c1ccc(NC(=O)c2cc(NC(=O)C3C(c4cc(Cl)cc(Cl)c4)C3(Cl)Cl)ccc2Cl)cc1 (stereo not drawn) [F502, trans-2-chloro-N-(4-(N-cyano-S-methylsulfonimidoyl)phenyl)-5-(2,2-dichloro-3-(3,5-dichlorophenyl)cyclopropane-1-carboxamido)benzamide] | 50 to 100 | 50 to 100 | A (80-100) |  |  | 
CN(C)c1ccc(NC(=O)c2cc(NC(=O)[C@H]3[C@H](c4cc(Cl)cc(Cl)c4)C3(Cl)Cl)ccc2Cl)cc1 (relative stereo) [F171, trans-2-Chloro-5-(2,2-dichloro-3-(3,5-dichlorophenyl)cyclopropane-1-carboxamido)-N-(4-(dimethylamino)phenyl)benzamide] |  |  |  | 50 to 100 | 50 to 100 | A (80-100)
COc1cc(F)ccc1NC(=O)c1cc(NC(=O)[C@H]2[C@H](c3cc(Cl)cc(Cl)c3)C2(Cl)Cl)ccc1Cl (relative stereo) [PF58, trans-2-Chloro-5-(2,2-dichloro-3-(3,5-dichlorophenyl)cyclopropane-1-carboxamido)-N-(4-fluoro-2-methoxyphenyl)benzamide] | 50 to 100 | 50 to 100 | A (80-100) |  |  | 
O=C(Nc1ccc(-n2cnnc2)cc1)c1cc(NC(=O)[C@H]2[C@H](c3cc(Cl)cc(Cl)c3)C2(Cl)Cl)ccc1Cl (relative stereo) [PF102, trans-N-(4-(4H-1,2,4-Triazol-4-yl)phenyl)-2-chloro-5-(2,2-dichloro-3-(3,5-dichlorophenyl)cyclopropane-1-carboxamido)benzamide] | 50 to 100 | 50 to 100 | A (80-100) |  |  | 
O=C(Nc1ccc(F)cc1F)c1cc(NC(=O)C2C(c3cc(Cl)cc(Cl)c3)[C@H]2Cl)ccc1Cl (stereo partly drawn) [F215, 2-Chloro-5-((2R)-2-chloro-3-(3,5-dichlorophenyl)cyclopropane-1-carboxamido)-N-(2,4-difluorophenyl)benzamide] |  |  |  | 50 to 100 | 50 to 100 | B (More than 0-Less than 80)
Nc1ccc(F)c(NC(=O)c2cc(NC(=O)[C@H]3[C@H](c4cc(Cl)cc(Cl)c4)C3(Cl)Cl)ccc2Cl)c1 [F427, N-(5-Amino-2-fluorophenyl)-2-chloro-5-((1R,3R)-2,2-dichloro-3-(3,5-dichlorophenyl)cyclopropane-1-carboxamido)benzamide] | 50 to 100 | 50 to 100 | A (80-100) |  |  | 
O=C(Nc1ccc(F)cc1)c1cc(Cl)cc(NC(=O)[C@H]2[C@H](c3cc(Cl)cc(Cl)c3)C2(Cl)Cl)c1 (relative stereo) [F136, trans-3-Chloro-5-(2,2-dichloro-3-(3,5-dichlorophenyl)cyclopropane-1-carboxamido)-N-(4-fluorophenyl)benzamide] |  |  |  | 50 to 100 | 50 to 100 | A (80-100)
CN(C(=O)c1cccc(NC(=O)[C@H]2[C@H](c3cc(Cl)c(Cl)c(Cl)c3)C2(Cl)Cl)c1F)c1ccccc1 (relative stereo) [F71, trans-3-(2,2-Dichloro-3-(3,4,5-trichlorophenyl)cyclopropane-1-carboxamido)-2-fluoro-N-methyl-N-phenylbenzamide] |  |  |  | 50 to 100 | 50 to 100 | B (More than 0-Less than 80)
O=C(Nc1ccc(F)cc1)c1cc(NC(=O)[C@H]2[C@H](c3cccc(C(F)(F)F)c3)C2(Cl)Cl)ccc1Cl (relative stereo) [F56, trans-2-Chloro-5-(2,2-dichloro-3-(3-(trifluoromethyl)phenyl)cyclopropane-1-carboxamido)-N-(4-fluorophenyl)benzamide] |  |  |  | 50 to 100 | 50 to 100 | B (More than 0-Less than 80)
O=C(Nc1ccc(NC(=O)C(F)(F)F)cc1)c1cc(NC(=O)[C@H]2[C@H](c3cc(Cl)cc(Cl)c3)C2(Cl)Cl)ccc1Cl (relative stereo) [PF24, trans-2-chloro-5-(2,2-dichloro-3-(3,5-dichlorophenyl)cyclopropane-1-carboxamido)-N-(4-(2,2,2-trifluoroacetamido)phenyl)benzamide] | 50 to 100 | 50 to 100 | A (80-100) |  |  | 
Nc1c(F)ccc(NC(=O)c2cc(NC(=O)[C@H]3[C@H](c4ccc(Cl)c(Cl)c4)C3(Cl)Cl)ccc2Cl)c1F [F314, N-(3-Amino-2,4-difluorophenyl)-2-chloro-5-((1R,3R)-2,2-dichloro-3-(3,4-dichlorophenyl)cyclopropane-1-carboxamido)benzamide] |  |  |  | 50 to 100 | 50 to 100 | A (80-100)
O=C(Nc1ccc(Cl)c(Cl)c1)c1cc(NC(=O)C2C(c3cc(Cl)cc(Cl)c3)C2(Cl)Cl)ccc1Cl (stereo not drawn) [PF117, 2-Chloro-5-(trans)-2,2-dichloro-3-(3,5-dichlorophenyl)cyclopropane-1-carboxamido)-N-(3,4-dichlorophenyl)benzamide] | 50 to 100 | 50 to 100 | A (80-100) |  |  | 
N#Cc1ccc(NC(=O)c2cc(NC(=O)[C@H]3[C@H](c4cc(Cl)cc(Cl)c4)C3(Cl)Cl)ccc2Cl)nc1 (relative stereo) [PF143, trans-2-Chloro-N-(5-cyanopyridin-2-yl)-5-(2,2-dichloro-3-(3,5-dichlorophenyl)cyclopropane-1-carboxamido)benzamide] | 50 to 100 | 50 to 100 | A (80-100) |  |  | 
